{"source": "paper PMC6983366", "about": "“A de novo peroxidase is also a promiscuous yet stereoselective carbene transferase” (Proceedings of the National Academy of Sciences of the …, 2020)", "key": {"C45": {"system": "T1, C45", "T1 construct": "de novo 4-helix bundle with covalently attached heme C", "test": "stopped-flow UV/visible kinetics of heme carbene formation", "format": "biochemical, synthetic construct", "conditions": "ferrous protein, anaerobic, pH 8.6, 100 mM KCl, 20 mM CHES, 5 °C, ethanol present; no acceptor; single-turnover metallocarbenoid formation; covalent heme adduct; read-out: K1 (pseudo-Michaelis constant)"}, "Rma-TDE": {"target": "T2, Rma-TDE (Rhodothermus marinus, UniProt B3FQS5, V103T/M128D/M131E)", "T2 construct": "gene cytC; engineered triple variant TDE of c-type cytochrome; synthetic gene, periplasmic expression from pSHT in E. coli T7 Express", "T2 sequence (B3FQS5 entry or part of it V103T/M128D/M131E)": "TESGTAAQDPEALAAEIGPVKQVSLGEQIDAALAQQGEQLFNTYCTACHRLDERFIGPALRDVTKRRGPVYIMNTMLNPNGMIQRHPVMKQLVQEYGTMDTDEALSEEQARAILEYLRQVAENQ", "test": "stopped-flow UV/visible kinetics of heme carbene formation", "format": "biochemical", "conditions": "read-out: K1 (pseudo-Michaelis constant); ferrous protein, anaerobic, pH 8.6, 100 mM KCl, 20 mM CHES, 5 °C, ethanol present; no acceptor; single-turnover metallocarbenoid formation; covalent heme adduct"}}, "data": [{"molecule": "CCOC(=O)C=[N+]=[N-]", "note": "[EDA]", "values": [{"measurement": "Km", "setting": "C45", "result": 74, "unit": "µM"}, {"measurement": "Km", "setting": "Rma-TDE", "result": 490, "unit": "µM"}]}]}
